The target in one data set is T1, HSV-1 protease (Human herpesvirus 1, UniProt P10210).
T1 construct: 6xHis (N); made in house; host or cells: baculovirus expression system
Description: Enzymatic assay for HSV-1 protease (assembly) inhibitor, fluorescence polarization. In kind it is biochemical. As to conditions: read-out: HSV-1 Enzyme inhibition IC50. As to the method:
An enzymatic assay method for an HSV-1 protease (assembly) inhibitor
The activity of an assembly protease was determined by fluorescence polarization. Biotin-gamma-amino butyrate-[…]-DTAF was used as a fluorescent substrate in accordance with an HSV-1 release and cleavage site. […] Changes in the sizes of fluorescent substrate molecules that increased with the use of avidin as a reaction terminator were assayed by fluorescence polarization.
The test compound was dissolved in DMF, and the resultant was diluted 5-fold with an assay buffer. 6.5 μl thereof was added to wells of a 96-well plate (a U-bottomed 96-well plate, Coster) that had previously been blocked with a blocking solution (10 mM Tris-HCl (pH 8.0), 150 mM sodium chloride, 0.05% Tween 20, 1 mg/ml of BSA). The enzyme was diluted to 21.3 μg/ml with an assay buffer (1M sodium citrate, 50 mM sodium phosphate (pH 7.4), 100 mM sodium chloride, 20% glycerol, 2 mM TCEP), and 48.5 μl of the resultant was added to each well. The plate was incubated at room temperature for 30 minutes, and 10 μl of 62.5 μg/ml substrate solution was then added to each well. The plate was incubated at room temperature for 60 minutes, and 50 μl of 2 mg/ml avidin phosphate buffer solution (50 mM sodium phosphate, 100 mM sodium chloride (pH 7.4)) was added to each well. The activity was determined in comparison with a compound without protease inhibitor using a microplate reader for fluorescence polarization.
HSV-1 protease was purified from a vaculovirus that had expressed a DNA construct encoding the reading frame for HSV-1UL26. This construct had further encoded 6 histidine residues at the amino terminus of the protease. These additional histidine residues impart affinity ligands purified by nickel-nitriloacetic acid-agarose (Qiagen). The purified protease was stored as a stock solution for a 20 mM HEPES buffer (pH 8.5, containing 20% v/v glycerin). This stock solution was diluted with an assay buffer and then used in the enzyme reaction.
In accordance with the cleavage specificity of the HSV-1 protease at the “release site” of the assembled protein, a specific substrate was synthesized (Diianni et al., J. Biol. Chem. 268, 2048 (1993)). This assembly protein-release site had the sequence • HTYLQA*SEKFKMW • , and the substrate used was biotin-gamma-amino butyrate-HTYLQA*SERFRIK-DTAF. This is a standard method for peptide synthesis, for example, as in the a method described in “The Practice of Peptide Synthesis” (Bodansky and Bodansky (1984)). The product was stored as a 2.5 mg/ml stock solution in DMF. The resultant was diluted to 62.5 μg/ml with a phosphate buffer (50 mM sodium phosphate, 100 mM sodium chloride, (pH 7.4)) immediately before its use.
An assay buffer (1M sodium citrate, 50 mM sodium phosphate (pH 7.4), 100 mM sodium chloride, 20% glycerol, 2 mM TCEP) was used to dilute a stock solution for the enzyme and that for the inhibitor.

In the next data set the test system is HSV-1. Description: Antiviral activity, HSV-1 in Vero cells, plaque method. In kind it is cell-based. The settings on record: Human alphaherpesvirus 1, 20 hours, 90% inhibition of plaque formation. As to the method: An Assay Method for Antiviral Activity These complementary assay methods examine the capacity of a compound to inhibit the generation of new viruses and to inhibit the toxicity of the compound against the host cell. Toxicity indirectly decreases the generation of viruses. Thus, it is important to simultaneously conduct both assays in order to directly compare the results. The Vero cells were sown on a 96-well plate and then cultured overnight. The culture supernatant was removed, and 100 μl of 2% FBS-DMEM containing 50,000 plaque-forming units (hereinafter abbreviated as “pfu”) of HSV-1 was added. A viral solution was removed and 200 μl of 2% FBS-DMEM comprising a test compound was added. In this case, a substance to which 2% FBS-DMEM not comprising any test compound had been added was determined as a control. These infected cells were incubated in the presence of 5% CO2 at 37° C. for 20 hours, and the medium was once allowed to freeze at −80° C. The culture solution was dissolved, and the amount of viruses in the culture solution was assayed by the plaque method. The concentration of the test compound when it inhibited 90% of plaque formation relative to the control was determined to be EC 90.

The test system of a further data set is Vero cells. Description: Cytotoxicity, Vero cells, Alamar Blue. In kind it is cell-based. The settings on record: 25 μM, 20 hours. As to the method:
An Assay Method for Cytotoxicity
The Vero cells were sown on a 96-well plate and then cultured overnight. The culture supernatant was removed, and 200 μl of 2% FBS-DMEM comprising 25 μM of the test compound was added. In this case, a substance to which 2% FBS-DMEM not comprising any test compound had been added was determined as a control. These cells were incubated in the presence of 5% CO2 at 37° C. for 20 hours. Alamar Blue (20 μl) was added to the cells, and cells were incubated for about 6 hours until the color of the control changed. The ratio of the absorbance was assayed using a microplate reader for absorption, and the value relative to the control was determined to be the ratio of living cells.
(In general: Alamar Blue is a resazurin reagent that responds to reducing activity.)

Each structure is given as a SMILES string.

T1 sequence (P10210 1-247): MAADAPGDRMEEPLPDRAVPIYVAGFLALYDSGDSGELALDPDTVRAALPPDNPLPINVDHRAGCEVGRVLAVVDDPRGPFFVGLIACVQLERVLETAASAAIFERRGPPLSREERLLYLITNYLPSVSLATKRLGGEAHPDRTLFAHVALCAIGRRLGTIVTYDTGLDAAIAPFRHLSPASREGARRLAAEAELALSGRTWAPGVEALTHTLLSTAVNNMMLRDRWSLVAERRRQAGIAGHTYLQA

Turning to `Cc1c(NC(=O)OC(C)(C)C)ccc2nc(N[C@H](C(=O)NCc3cccnc3)C(C)C)oc(=O)c12` [Compound No.24, (5-Methyl-2-{2-methyl-1S-[(pyridin-3-ylmethyl)-carbamoyl]-propylamino}-4-oxo-4H-benzo[d][1,3]oxazin-6-yl)-carbamic acid tert-butyl ester], on HSV-1 protease, the 50% inhibitory concentration (IC50) (usually the concentration that inhibits the measured activity by half) is greater than 20 µM. In the data set on HSV-1, the EC90 (as a rule, the point of the concentration-response curve where the effect stands at 90%) was greater than 25 µM. Also, in the data set with Vero cells, the “Cell viability (% of control)” value is 99.5%.

Turning to `Cc1c(NC(=O)OC(C)(C)C)ccc2nc(N[C@H](C(=O)NCc3ccncc3)C(C)C)oc(=O)c12` [Compound No.25, (5-Methyl-2-{2-methyl-1S-[(pyridin-4-ylmethyl)-carbamoyl]-propylamino}-4-oxo-4H-benzo[d][1,3]oxazin-6-yl)-carbamic acid tert-butyl ester], the IC50 at HSV-1 protease was greater than 20 µM. In the data set with HSV-1, this compound displayed an EC90 greater than 25 µM. Also, the “Cell viability (% of control)” value in the data set on Vero cells came to 100.0%.

With `Cc1c(NC(=O)OC(C)(C)C)ccc2nc(N[C@H](C(=O)NCCc3ccccn3)C(C)C)oc(=O)c12` [Compound No.26, {5-Methyl-2-[2-methyl-1S-(2-pyridin-2-ylethylcarbamoyl)-propylamino]-4-oxo-4H-benzo[d][1,3]oxazin-6-yl}-carbamic acid tert-butyl ester], on HSV-1 protease, the half-maximal inhibitory concentration (IC50) came out at 3.2 µM. Besides, the EC90 with HSV-1 is 13 µM. In the data set on Vero cells, the “Cell viability (% of control)” value was determined as 107.0%.

In the case of `Cc1c(NC(=O)OC(C)(C)C)ccc2nc(N[C@@H](CC3CCCCC3)C(=O)NCc3cccnc3)oc(=O)c12` [Compound No.27, (2-{2-Cyclohexyl-1S-[(pyridin-3-ylmethyl)-carbamoyl]-ethylamino}-5-methyl-4-oxo-4H-benzo[d][1,3]oxazin-6-yl)-carbamic acid tert-butyl ester], on HSV-1 protease, the IC50 was determined as 8.7 µM. For the same compound, the EC90 with HSV-1 is greater than 25 µM. The “Cell viability (% of control)” value in the data set on Vero cells amounted to 103.0%.

For `Cc1c(NC(=O)OC(C)(C)C)ccc2nc(N[C@@H](CC3CCCCC3)C(=O)NCc3ccncc3)oc(=O)c12` [Compound No.28, (2-{2-Cyclohexyl-1S-[(pyridin-4-ylmethyl)-carbamoyl]-ethylamino}-5-methyl-4-oxo-4H-benzo[d][1,3]oxazin-6-yl)-carbamic acid tert-butyl ester], on HSV-1 protease, the IC50 worked out at 4.4 µM. In the data set with HSV-1, this compound yielded an EC90 of less than 6.3 µM. For the same compound, the “Cell viability (% of control)” value with Vero cells amounted to 70.0%.

As to `Cc1c(NC(=O)OC(C)(C)C)ccc2nc(N[C@@H](CC3CCCCC3)C(=O)NCCc3ccccn3)oc(=O)c12` [Compound No.29, {2-[2-Cyclohexyl-1S-(2-pyridin-2-ylethylcarbamoyl)-ethylamino]-5-methyl-4-oxo-4H-benzo[d][1,3]oxazin-6-yl}-carbamic acid tert-butyl ester], at HSV-1 protease, the IC50 worked out at 19.5 µM. For the same compound, the EC90 in the data set with HSV-1 worked out at 24.3 µM. Also, in the data set on Vero cells, the “Cell viability (% of control)” value was 110.0%.

`Cc1c(NC(=O)CCNC(=O)c2ccc(C(F)(F)F)cc2)ccc2nc(N[C@@H](C)C(=O)N(C)CCc3ccccn3)oc(=O)c12` [Compound No.216, N-[2-(5-Methyl-2-{1S-[methyl-(2-pyridin-2-yl-ethyl)-carbamoyl]-ethylamino}-4-oxo-4H-benzo[d][1,3]oxazin-6-ylcarbamoyl)-ethyl]-4-trifluoromethyl-benzamide]: at HSV-1 protease, the IC50 worked out at 3 µM. The same compound returned an EC90 with HSV-1 greater than 12.5 µM.

Turning to `CCCCc1ccc(C(=O)NCCC(=O)Nc2ccc3nc(N[C@@H](C)C(=O)N(C)CCc4ccccn4)oc(=O)c3c2C)cc1` [Compound No.217, 4-Butyl-N-[2-(5-methyl-2-{1S-[methyl-(2-pyridin-2-yl-ethyl)-carbamoyl]-ethylamino}-4-oxo-4H-benzo[d][1,3]oxazin-6-ylcarbamoyl)-ethyl]-benzamide], the IC50 on HSV-1 protease is 4.7 µM. In addition, the EC90 with HSV-1 was greater than 12.5 µM.

With `Cc1c(NC(=O)CCCNC(=O)c2cccs2)ccc2nc(N[C@@H](C)C(=O)N(C)CCc3ccccn3)oc(=O)c12` [Compound No.218, Thiophene-2-carboxylic acid [3-(5-methyl-2-{1S-[methyl-(2-pyridin-2-yl-ethyl)-carbamoyl]-ethylamino}-4-oxo-4H-benzo[d][1,3]oxazin-6-ylcarbamoyl)-propyl]-amide], the IC50 on HSV-1 protease was determined as 0.4 µM. The EC90 in the data set with HSV-1 was greater than 12.5 µM.

Turning to `Cc1c(NC(=O)CCCNC(=O)c2ccc(C(F)(F)F)cc2)ccc2nc(N[C@@H](C)C(=O)N(C)CCc3ccccn3)oc(=O)c12` [Compound No.219, N-[3-(5-Methyl-2-{1S-[methyl-(2-pyridin-2-yl-ethyl)-carbamoyl]-ethylamino}-4-oxo-4H-benzo[d][1,3]oxazin-6-ylcarbamoyl)-propyl]-4-trifluoromethyl-benzamide], on HSV-1 protease, the IC50 worked out at 0.9 µM. Moreover, the EC90 in the data set with HSV-1 was greater than 12.5 µM.

In the case of `CCCCc1ccc(C(=O)NCCCC(=O)Nc2ccc3nc(N[C@@H](C)C(=O)N(C)CCc4ccccn4)oc(=O)c3c2C)cc1` [Compound No.220, 4-Butyl-N-[3-(5-methyl-2-{1S-[methyl-(2-pyridin-2-yl-ethyl)-carbamoyl]-ethylamino}-4-oxo-4H-benzo [d][1,3]oxazin-6-ylcarbamoyl)-propyl]-benzamide], the IC50 at HSV-1 protease came to 0.5 µM. The compound also registered an EC90 in the data set with HSV-1 greater than 12.5 µM.

For the compound `Cc1c(NC(=O)CCNC(=O)OC(C)(C)C)ccc2nc(N(C)CC(=O)N(C)CCc3ccccn3)oc(=O)c12` [Compound No.226, {2-[5-methyl-2-(methyl-{[methyl-(2-pyridin-2-yl-ethyl)-carbamoyl]-methyl}-amino)-4-oxo-4H-benzo[d][1,3]oxazin-6-ylcarbamoyl]-ethyl}-carbamic Acid Tert-Butyl Ester], the IC50 at HSV-1 protease is 1 µM. The same compound returned an EC90 in the data set on HSV-1 greater than 20 µM.

For `Cc1c(NC(=O)CCNC(=O)OC(C)(C)C)ccc2nc(N[C@H](C)C(=O)N(C)CCc3ccccn3)oc(=O)c12` [Compound No.227, [2-(5-Methyl-2-{1R-[methyl-(2-pyridin-2-yl-ethyl)-carbamoyl]-ethylamino}-4-oxo-4H-benzo[d][1,3]oxazin-6-ylcarbamoyl)-ethyl]-carbamic acid tert-butyl ester], the IC50 on HSV-1 protease was 2.4 µM. Besides, the EC90 in the data set on HSV-1 was greater than 20 µM.

Turning to `Cc1c(NC(=O)CCNC(=O)OC(C)(C)C)ccc2nc(NCC(=O)N(C)CCc3ccccn3)oc(=O)c12` [Compound No.228, {2-[5-Methyl-2-({[methyl-(2-pyridin-2-yl-ethyl)-carbamoyl]-methyl}-amino)-4-oxo-4H-benzo[d][1,3]oxazin-6-ylcarbamoyl]-ethyl}-carbamic acid tert-butyl ester], the IC50 on HSV-1 protease was 0.7 µM. Besides, the EC90 with HSV-1 is greater than 20 µM.

In the case of `Cc1c(NC(=O)OC(C)(C)C)ccc2nc(NC(C)(C)C(=O)N(C)CCc3ccccc3)oc(=O)c12` [compound 229, {5-Methyl-2-[1-methyl-1-(methyl-phenethyl-carbamoyl)-ethylamino]-4-oxo-4H-benzo[d][1,3]oxazin-6-yl}-carbamic acid tert-butyl ester, reference compound], the half-inhibitory concentration (IC50) at HSV-1 protease came to 12.2 µM. In the data set on HSV-1, this compound returned an EC90 of 6.6 µM.

These data come from US20040116420A1 (priority 2001, published 2004).
